According to US8476455B2, “1-N-phenyl-amino-1h-imidazole derivatives and pharmaceutical compositions containing them” (Laboratoire Theramex, priority 2003, dated 2013):

What was measured:
[1] = target: T1, human aromatase (Homo sapiens, UniProt P11511); test: Aromatase activity alone, tritiated water method in JEG-3 cells; format: cell-based; settings: footnote a: aromatase activity alone, nd: not detected, read-out: Aromatase activity IC50 (nM) ± S.E.M.
T1 construct: The JEG-3 cell line, derived from a human placental choriocarcinoma, constitutively overexpresses human aromatase; endogenous in cells; host or cells: JEG-3 (human placental choriocarcinoma)
T1 sequence (P11511 1-503): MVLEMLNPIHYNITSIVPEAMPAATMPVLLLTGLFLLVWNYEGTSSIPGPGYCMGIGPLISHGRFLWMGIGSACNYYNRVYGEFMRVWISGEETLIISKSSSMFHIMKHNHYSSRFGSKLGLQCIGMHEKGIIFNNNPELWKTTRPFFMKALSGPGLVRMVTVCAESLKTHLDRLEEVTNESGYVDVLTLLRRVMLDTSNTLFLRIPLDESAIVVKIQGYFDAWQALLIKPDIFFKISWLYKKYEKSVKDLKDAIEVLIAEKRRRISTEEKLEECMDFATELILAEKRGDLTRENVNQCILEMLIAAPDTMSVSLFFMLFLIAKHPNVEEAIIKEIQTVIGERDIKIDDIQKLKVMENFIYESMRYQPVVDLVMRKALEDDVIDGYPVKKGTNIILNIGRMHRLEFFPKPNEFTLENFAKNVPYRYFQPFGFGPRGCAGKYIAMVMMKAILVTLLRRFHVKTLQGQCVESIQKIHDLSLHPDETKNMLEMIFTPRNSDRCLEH
Procedure: The JEG-3 cell line, derived from a human placental choriocarcinoma, constitutively overexpresses human aromatase and represents a relevant model for assaying putative aromatase inhibitors in vitro. Aromatase activity was determined by the tritiated water method. In brief, cells were first seeded into 96-well microplates in decomplemented fetal calf serum (dFCS) supplemented medium. 24 hours later, cells were rinsed and fresh medium containing 1β-^3H-androstenedione as aromatase substrate was added together with test compounds at concentrations ranging from 10^−12 M to 10^−5 M. After 2 hours of incubation, a fraction of the medium was transferred to homologous new 96-well microplates and a dextran-coated charcoal solution was added to each well. Following standing on ice for 10 minutes, microplates were centrifuged (1500 g; 4° C.). All steroids, including the radioactive substrate and the newly biosynthesized estrogens, were adsorbed on charcoal; only ^3H-water specifically formed during aromatisation of 1β-^3H-androstenedione, remained in the supernatant. The radioactivity in the supernatant was measured by liquid scintillation counting. In parallel, cell solubilization was performed in ethylenediamine tetraacetate solution. […] Finally, aromatase activity was expressed in fmoles of ^3H-water formed/2 hours/μg DNA and aromatase inhibition as a percentage of control activity without inhibitor.

[2] = target: T2, human estrone sulfatase (Homo sapiens, UniProt P08842); test: Steroid (estrone) sulfatase activity alone in JEG-3 cells; format: cell-based; settings: footnote b: sulfatase activity alone, nd: not detected, read-out: Sulfatase activity IC50 (nM) ± S.E.M.
T2 construct: The JEG-3 cell line is intrinsically very rich in human estrone sulfatase; endogenous in cells; host or cells: JEG-3 (human placental choriocarcinoma)
T2 sequence (P08842 22-583): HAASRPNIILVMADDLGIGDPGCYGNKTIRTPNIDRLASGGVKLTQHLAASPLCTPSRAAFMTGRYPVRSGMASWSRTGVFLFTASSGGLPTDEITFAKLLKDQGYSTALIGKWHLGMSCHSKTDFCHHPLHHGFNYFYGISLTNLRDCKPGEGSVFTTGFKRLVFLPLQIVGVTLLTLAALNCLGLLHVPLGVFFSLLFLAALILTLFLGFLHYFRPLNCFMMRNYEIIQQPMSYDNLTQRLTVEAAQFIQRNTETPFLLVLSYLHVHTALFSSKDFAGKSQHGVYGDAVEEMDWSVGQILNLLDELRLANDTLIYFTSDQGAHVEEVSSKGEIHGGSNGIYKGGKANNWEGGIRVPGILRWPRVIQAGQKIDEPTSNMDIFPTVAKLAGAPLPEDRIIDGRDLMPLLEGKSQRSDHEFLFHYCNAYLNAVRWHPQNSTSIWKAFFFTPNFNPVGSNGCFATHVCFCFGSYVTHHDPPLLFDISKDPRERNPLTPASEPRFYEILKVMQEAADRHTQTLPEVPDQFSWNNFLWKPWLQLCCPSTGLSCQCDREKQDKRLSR
Procedure: (§1) The JEG-3 cell line is intrinsically very rich in human estrone sulfatase and therefore is a useful biological system to evaluate new steroid sulfatase inhibitors in vitro. Assays were carried out with cells in logarithmic growth phase on 96-well microplates. 24 h before studies, cells were seeded in decomplemented fetal calf serum (dFCS) supplemented medium. The medium was removed 24 h later and cells were rinsed with PBS to eliminate any trace of dFCS. Then, ^3H-E1S was added in dFCS free medium, followed by test compounds at concentrations ranging from 10^−12 M to 10^−5 M. After 4 h of treatment, the medium was transferred into 96-deep-well microplates and centrifuged at 200×g for 10 min to pellet cells before toluene extraction. A fraction of the medium was used for toluene extraction in order to separate the conjugated substrate from non-conjugated products. The radioactivity in the toluene phase was measured by liquid scintillation counting. In parallel, after cell solubilization in a ethylenediamine tetraacetate solution, DNA content was measured by a standard fluorimetric method using the Hoechst 33258 fluorochrome. Finally, estrone sulfatase activity was expressed in pmoles of ^3H-E1+^3H-E2 formed/4 hours/mg DNA and estrone sulfatase inhibition as a percentage of control activity without inhibitor.

[3] = test system: Ishikawa cells; test: Alkaline phosphatase activity in Ishikawa cells (estrogenic potency); format: cell-based
Procedure: Ishikawa cells were plated into 96-well microplates 48 hours before studies. The next day, the medium was replaced by phenol red free medium supplemented with 5% charcoal-stripped dFCS. 24 hours later, the medium was renewed and compounds were added to the plated cells and incubated for an additional four-day period. […] At the end of the incubation period, alkaline phosphatase activity (APase) was assayed by a method involving the hydrolysis of p-nitrophenyl phosphate to p-nitrophenol and spectrophotometric determination of the product at 405 nm.
In brief, the microplates were first rinsed twice with cold phosphate buffered solution and then placed at −80° C. for at least 15 minutes. After thawing at room temperature, 50 μl ice-cold solution containing 5 mM p-nitrophenyl phosphate was added to each well. After a 15 to 60 minute incubation period at room temperature, the intensity of the yellow color generated by the production of p-nitrophenol was measured into each well at 405 nm.
For each tested concentration, APase activity, reflected by absorbance, was first expressed as fold increase over control (FI) and then as percentage of E2 activity (10^-8 M) chosen equal to 100%.

[4] = target: T3, human steroid sulfatase (Homo sapiens, UniProt P08842); test: Dual aromatase and steroid sulfatase activities in JEG-3 cells: sulfatase readout; format: cell-based; settings: footnote c: dual aromatase and sulfatase activity, nd: not detected, read-out: Sulfatase activity IC50 (nM) ± S.E.M.
T3 construct: The JEG-3 cell line is intrinsically very rich in human estrone sulfatase; endogenous in cells; host or cells: JEG-3 (human placental choriocarcinoma)
T3 sequence (P08842 22-583): T2 sequence (P08842 22-583)
Procedure: as §1
(§2) In order to evaluate the inhibitory potency of DASI compounds in parallel on both human aromatase and steroid sulfatase activities, a new in vitro model was set up using JEG-3 cells. The experimental conditions of the steroid sulfatase model previously described was adopted with slight modifications: the presence of the two substrates ^3-HE1S and 1β-^3H-androstenedione into the medium and an incubation period of 2 hours. Results were expressed in pmoles of product formed (^3H-E1+^3H-E2 or ^3H2O)/2 hours/mg DNA (Table 1).

[5] = test system: aromatase; test: Inhibition of estradiol peak, in vivo aromatase inhibition model; design: species or system rat; settings: female rats, 24 hours after one oral administration
Procedure: One hundred IOPS Wistar female rats, weighing 180 to 200 g, were accommodated by four in stainless steel mesh cages. […] Vaginal smears were performed for each animal, each morning, in order to establish the different phases of cycle. […] Starting at 4.00 pm, animals received an oral administration of formulations. 24 hours later, samples of serum were collected and estradiol level were determined as previously described (Table 4).

[6] = test system: aromatase; settings: 3 μg/kg, 24 hours after one single oral administration in female rats; cited from earlier work
[7] = target: T1, human aromatase; test: Dual aromatase and steroid sulfatase activities in JEG-3 cells: aromatase readout; format: cell-based; settings: footnote c: dual aromatase and sulfatase activity, nd: not detected, read-out: Aromatase activity IC50 (nM) ± S.E.M.
Procedure: as §1, with “Assays” for “The JEG-3 cell line is intrinsically very rich in human estrone sulfatase and therefore is a useful biological system to evaluate new steroid sulfatase inhibitors in vitro. Assays”, “In parallel, after cell solubilization in a ethylenediamine tetraacetate solution, DNA content was measured by a standard fluorimetric method using the Hoechst 33258 fluorochrome.” left out
as §2

[8] = target: human carbonic anhydrase II (Homo sapiens, UniProt P00918); test: Human carbonic anhydrase II activity (p-nitrophenyl acetate, colorimetric); format: biochemical; settings: read-out: Human carbonic anhydrase II activity IC50 (nm) ± S.E.M.
Procedure: Briefly, in this assay, human carbonic anhydrase II catalyses the conversion of p-nitrophenyl acetate into pnitrophenol. The potential inhibitory effect of test compounds was evaluated by colorimetric determination of prnitrophenol produced during the enzymatic reaction. The optical density levels obtained without inhibitor will be referred to as “total activity”. The levels obtained without Inhibitor and without the enzyme will be referred to as “blank” in order to assess any interference with the substrate during the assay (Table 2).

[9] = test system: steroid sulfatase; test: Anti uterotrophic/anti steroid sulfatase activity in vivo; design: species or system rat; settings: ovariectomized Wistar female rats, E1S 50 μg/kg/day s.c., oral 1 mg/kg/day for 4 days; % of inhibition of the E1S induced stimulation
Procedure: Wistar female rats were ovariectomized and left to rest for 4 weeks. Prior to treatment, the absence of cyclicity was checked by vaginal smears. Animals were supplemented with estrone sulfate (EIS) at 50 μg/kg/day s.c., alone or combined with oral administration of potential sulfatase inhibitors, at 1 mg/kg/day for 4 days. The uteri were removed, freed of adjacent tissue and wet weighed (Table 3).
Estrone sulfatase activity is measured according to the method described by Purohit et al., with slight modifications. Briefly, uteri were thawed, weighed and homogenized. Aliquots of the supernatant were treated with dextran-coated charcoal and assayed for sulfatase. E1S activity is assessed after 30 min of incubation with 5 nM of ^3H-E1S and 20 μM of unlabelled E1S as substrate. Estrone sulfatase activity is expressed as pmol/h/mg protein and reported as percentage of inhibition vs E1S; for uterus weights, results are expressed as % of inhibition of the E1S induced stimulation

Compound | IC50 [1] [nM] | IC50 [2] [nM] | melting point [°C] | also measured
COc1cc(CN(c2ccc(C#N)cc2)n2ccnc2)ccc1OS(N)(=O)=O [Ex 46, Sulfamic acid 2-methoxy-4-{[N-(4-cyanophenyl)-N-(1H-imidazol-1yl)amino]methyl}phenyl ester] | 0.79 ± 0.26 | 13.8 ± 2.5 | 211 | estrogenicity in vitro (in words) [3]: not estrogenic
CC(C)(C#N)c1cc(Cn2cncn2)cc(C(C)(C)C#N)c1 [anastrozole, reference compound] | – | – | – | % inhibition (estradiol peak) [5]: 56%; estradiol levels (in words) [6]: significantly inhibits
N#Cc1ccc(N(CCOc2ccc(OS(N)(=O)=O)cc2)n2ccnc2)cc1 [Ex 51, Sulfamic acid 4-{2-[N-(4-cyanophenyl)-N-(1H-imidazol-1yl)amino]ethoxy}phenyl ester] | – | – | 174 | IC50 [7]: 0.34 ± 0.13 nM; IC50 [4]: 597 ± 67.4 nM; IC50 [8]: 6.5 ± 0.9 nM
NS(=O)(=O)Oc1ccc2c3c(c(=O)oc2c1)CCCCC3 [6,6,7 COUMATE, 6,6,7-COUMATE, reference compound] | – | – | – | % inhibition (uterus weight) [9]: 81%
N#Cc1ccc(N(Cc2ccc3c(c2)C=NS(=O)(=O)O3)n2ccnc2)cc1 [Ex 48, 4-[N-[(2,2-dioxido-1,2,3-benzoxathiazin-6-yl)methyl]-N-(1H-imidazol-1-yl)amino]benzonitrile] | 0.82 ± 0.12 | 2660 ± 257 | 180 | –

Further lines, with some results ahead:

IC50 [1] [nM] | IC50 [2] [nM] | melting point [°C] | Compound | also measured
0.57 ± 0.16 | ~10 | 172 | N#Cc1ccc(N(Cc2ccc(OS(N)(=O)=O)cc2)n2ccnc2)cc1 [Ex 43, Sulfamic acid-4-{[N-(4-cyanophenyl)-N-(1H-imidazol-1yl)amino]methyl}phenyl ester] | estrogenicity in vitro (in words) [3]: not estrogenic
– | 2.5 ± 0.5 | – | NS(=O)(=O)Oc1ccc2c(c1)S(=O)(=O)C=C2CC1CCCCCC1 [A*, sulfamic acid, 3-cycloheptylmethylbenzothiophen-6-yl-1,1-dioxide-ester, reference compound] | IC50 [4]: 3.6 ± 0.8 nM
